Here are results for eleven molecules from US20230002357A1, “7-PYRIMIDINE-2-YL-OXY-INDAZOLE DERIVATIVES AND THEIR USE AS HERBICIDES” (SYNGENTA CROP PROTECTION AG, priority 2019, published 2023).

Common to all, as to format: in vivo
Conditions in all cases: 250 g/ha, evaluated after 13 days

For assay [1], the system named is ABUTH. Kind of assay: Pre-emergence Test, glasshouse, ABUTH. An outline of the steps: (§1)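 Sow seeds in standard soil; grow under glasshouse control (24/16 °C day/night, 14 h light, 65% humidity). Spray at day 1 (pre-emergence) or day 8 (post-emergence) with an aqueous spray of compound formulated in acetone/water 50:50 with 0.5% Tween 20, normally 250 g/ha. Evaluate percentage damage at 13 days, scored 1-5.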

For assay [2], the system named is Amaranthus retoflexus (AMARE). Kind of assay: Post-emergence Test, glasshouse, AMARE. Summed up:
as §1

Assay [3] relates to IPOHE. Briefly: Post-emergence Test, glasshouse, IPOHE. Summed up: as §1
Assay [4] relates to Setaria faberi (SETFA). Kind of assay: Post-emergence Test, glasshouse, SETFA. Summed up:
as §1

Assay [5] concerns IPOHE. Kind of assay: Pre-emergence Test, glasshouse, IPOHE. An outline of the steps: as §1
Assay [6] has as its system ABUTH. Kind of assay: Post-emergence Test, glasshouse, ABUTH. Summed up:
as §1

The test system of assay [7] is Setaria faberi (SETFA). Briefly: Pre-emergence Test, glasshouse, SETFA. An outline of the steps:
as §1

The subject of assay [8] is Amaranthus retoflexus (AMARE). Kind of assay: Pre-emergence Test, glasshouse, AMARE. Summed up:
as §1

Assay [9] deals with Echinochloa crus-galli (ECHCG). Kind of assay: Pre-emergence Test, glasshouse, ECHCG. An outline of the steps: as §1
Assay [10] deals with Echinochloa crus-galli (ECHCG). Briefly: Post-emergence Test, glasshouse, ECHCG. Summed up:
as §1

The structures appear in SMILES notation.

Turning to `CC(C)CCn1nc(Cl)c2cccc(Oc3ncc(Cl)cn3)c21` [Compound 1.056], the figures for the “percentage damage caused to the plant, five-point scale, ABUTH” value (from here on “percentage damage caused … ABUTH”) in [1] and in assay [6] were 1 (1=0-20%) and 3 (3=41-60%), respectively. Besides, the “percentage damage caused to the plant, five-point scale, AMARE” value (“percentage damage caused … AMARE” for short) in assay [2] and in assay [8] was 4 (4=61-80%) in each case. The “percentage damage caused to the plant, five-point scale, IPOHE” value (“percentage damage caused … IPOHE” for short) in [3] is on record as 3 (3=41-60%); in assay [5], 1 (1=0-20%). The “percentage damage caused to the plant, five-point scale, SETFA” value (“percentage damage caused … SETFA” for short) in assay [4] was 2 (2=21-40%); in [7], 4 (4=61-80%). For the same molecule, the “percentage damage caused to the plant, five-point scale, ECHCG” value (“percentage damage caused … ECHCG” for short) in [9] was 3 (3=41-60%); in assay [10] it was 2 (2=21-40%).

As to `CC(C)Cn1nc(Cl)c2cccc(Oc3ncc(Cl)cn3)c21` [Compound 1.057], the “percentage damage caused … ABUTH” value in [1] and in assay [6] was 2 (2=21-40%) throughout. The “percentage damage caused … AMARE” value in assay [2] is 3 (3=41-60%); in assay [8] it was 2 (2=21-40%). The “percentage damage caused … IPOHE” value in assay [3] and in assay [5] was 1 (1=0-20%) in each case. Further, the “percentage damage caused … SETFA” value in assay [4] is listed as 1 (1=0-20%); in assay [7] it was 4 (4=61-80%). Moreover, the figures for the “percentage damage caused … ECHCG” value in assay [9] and in [10] were 2 (2=21-40%) and 1 (1=0-20%), respectively.

On to `CCCCCCn1nc(Cl)c2cccc(Oc3ncc(Cl)cn3)c21` [Compound 1.058], for which the “percentage damage caused … ABUTH” value in [1] is recorded as 2 (2=21-40%); in [6], 3 (3=41-60%). For the same molecule, the “percentage damage caused … AMARE” value was 4 (4=61-80%) in assay [2] and 2 (2=21-40%) in [8]. Besides, the “percentage damage caused … IPOHE” value in [3] is given as 2 (2=21-40%); in assay [5] it was 1 (1=0-20%). In addition, the “percentage damage caused … SETFA” value in assay [4] was 2 (2=21-40%); in assay [7], 3 (3=41-60%). Further, the “percentage damage caused … ECHCG” value in [9] and in [10] was 3 (3=41-60%) each time.

For `C#CCn1nc(Cl)c2cccc(Oc3ncc(Cl)cn3)c21` [Compound 1.059], the “percentage damage caused … ABUTH” value in [1] and in assay [6] was 2 (2=21-40%) in each case. The “percentage damage caused … AMARE” value in assay [2] is on record as 4 (4=61-80%); in assay [8] it was 2 (2=21-40%). Also, the “percentage damage caused … IPOHE” value in assay [3] and in assay [5] was 1 (1=0-20%) in each case. Moreover, the “percentage damage caused … SETFA” value in assay [4] is recorded as 1 (1=0-20%); in assay [7] it was 2 (2=21-40%). Moreover, the “percentage damage caused … ECHCG” value in assay [9] is reported as 2 (2=21-40%); in [10] it was 1 (1=0-20%).

Take `COCCCn1nc(Cl)c2cccc(Oc3ncc(Cl)cn3)c21` [Compound 1.060]: the figures for the “percentage damage caused … ABUTH” value in assay [1] and in [6] were 4 (4=61-80%) and 3 (3=41-60%), respectively. Moreover, the “percentage damage caused … AMARE” value in [2] is recorded as 3 (3=41-60%); in assay [8], 4 (4=61-80%). Also, the “percentage damage caused … IPOHE” value in assay [3] and in assay [5] was 2 (2=21-40%) each time. The “percentage damage caused … SETFA” value in assay [4] is recorded as 3 (3=41-60%); in [7] it was 4 (4=61-80%). Besides, the “percentage damage caused … ECHCG” value in assay [9] and in assay [10] was 4 (4=61-80%) each time.

Regarding `CCCn1nc(Cl)c2cccc(Oc3ncc(Cl)cn3)c21` [Compound 1.061], the “percentage damage caused … ABUTH” value was 1 (1=0-20%) in [1] and 2 (2=21-40%) in assay [6]. Also, the figures for the “percentage damage caused … AMARE” value in [2] and in [8] were 4 (4=61-80%) and 3 (3=41-60%), respectively. Besides, the “percentage damage caused … IPOHE” value in assay [3] is recorded as 2 (2=21-40%); in assay [5] it was 1 (1=0-20%). Further, the “percentage damage caused … SETFA” value in [4] is 2 (2=21-40%); in assay [7], 5 (5=81-100%). The “percentage damage caused … ECHCG” value is 4 (4=61-80%) in assay [9] and 2 (2=21-40%) in assay [10].

For the molecule `FCCn1nc(Cl)c2cccc(Oc3ncc(Cl)cn3)c21` [Compound 1.062], the “percentage damage caused … ABUTH” value is listed as 1 (1=0-20%) in [1] and 2 (2=21-40%) in assay [6]. Moreover, the “percentage damage caused … AMARE” value in assay [2] is 3 (3=41-60%); in assay [8], 4 (4=61-80%). The “percentage damage caused … IPOHE” value in assay [3] and in [5] was 1 (1=0-20%) in each case. Also, the figures for the “percentage damage caused … SETFA” value in [4] and in [7] were 1 (1=0-20%) and 4 (4=61-80%), respectively. Further, the “percentage damage caused … ECHCG” value in [9] is recorded as 2 (2=21-40%); in assay [10], 1 (1=0-20%).

In the case of `FC(F)Cn1nc(Cl)c2cccc(Oc3ncc(Cl)cn3)c21` [Compound 1.063], the “percentage damage caused … ABUTH” value in assay [1] is listed as 2 (2=21-40%); in assay [6], 3 (3=41-60%). Further, the figures for the “percentage damage caused … AMARE” value in assay [2] and in [8] were 4 (4=61-80%) and 3 (3=41-60%), respectively. The “percentage damage caused … IPOHE” value is reported as 2 (2=21-40%) in [3] and 1 (1=0-20%) in [5]. The “percentage damage caused … SETFA” value in assay [4] and in assay [7] was 2 (2=21-40%) each time. Besides, the “percentage damage caused … ECHCG” value in assay [9] and in [10] was 2 (2=21-40%) in each case.

`C=C(C)Cn1nc(Cl)c2cccc(Oc3ncc(Cl)cn3)c21` [Compound 1.064]: the figures for the “percentage damage caused … ABUTH” value in assay [1] and in assay [6] were 1 (1=0-20%) and 2 (2=21-40%), respectively. Also, the “percentage damage caused … AMARE” value was 2 (2=21-40%) in [2] and 1 (1=0-20%) in [8]. In addition, the “percentage damage caused … IPOHE” value in assay [3] and in [5] was 1 (1=0-20%) in each case. Besides, the “percentage damage caused … SETFA” value in [4] and in assay [7] was 1 (1=0-20%) each time. Also, the “percentage damage caused … ECHCG” value in [9] and in assay [10] was 1 (1=0-20%) each time.

In the case of `C=CCn1nc(Cl)c2cccc(Oc3ncc(Cl)cn3)c21` [Compound 1.065], the “percentage damage caused … ABUTH” value in [1] and in assay [6] was 2 (2=21-40%) in each case. Further, the results for the “percentage damage caused … AMARE” value in [2] and in [8] were 4 (4=61-80%) and 2 (2=21-40%), respectively. In addition, the “percentage damage caused … IPOHE” value was 2 (2=21-40%) in [3] and 1 (1=0-20%) in [5]. Further, the “percentage damage caused … SETFA” value is listed as 2 (2=21-40%) in [4] and 4 (4=61-80%) in assay [7]. The “percentage damage caused … ECHCG” value in [9] is recorded as 3 (3=41-60%); in assay [10], 2 (2=21-40%).

In the case of `CC(C)=CCCn1nc(Cl)c2cccc(Oc3ncc(Cl)cn3)c21` [Compound 1.066], the entries for the “percentage damage caused … ABUTH” value in assay [1] and in assay [6] were 2 (2=21-40%) and 4 (4=61-80%), respectively. Further, the entries for the “percentage damage caused … AMARE” value in [2] and in [8] were 4 (4=61-80%) and 3 (3=41-60%), respectively. The “percentage damage caused … IPOHE” value in [3] is 2 (2=21-40%); in assay [5], 1 (1=0-20%). The “percentage damage caused … SETFA” value in [4] is 3 (3=41-60%); in assay [7] it was 5 (5=81-100%). Moreover, the “percentage damage caused … ECHCG” value is recorded as 4 (4=61-80%) in assay [9] and 3 (3=41-60%) in assay [10].
